Earlier results in patent US20100130406A1, “GLYCATED MILK AND USES THEREOF” (SOMNACEUTICS LIMITED, priority 2007, published 2010).

What was measured:
[1] = normal (non-glycated) peptide

## N[C@@H](Cc1c[nH]c2ccccc12)C(=O)O [1-tryptophane]
humans
  quantity required for a soporific effect: about 1 g

## COc1ccc2[nH]cc(CCNC(C)=O)c2c1 [Melatonin]
humans
  quantity having a soporific effect for some people: 3 to 5 mg

## beta-casomorphin-7
chickens
  sedative and anxiolytic effects: sedative and anxiolytic effects
[1]
  half-life in the circulation: about a few minutes
rats
  sedative and anxiolytic effects: sedative and anxiolytic effects
cockroaches
  sedative and anxiolytic effects: sedative and anxiolytic effects
